Assay results reported in US8415486B2, “IAP inhibitors” (TetraLogic Pharmaceuticals Corp., priority 2009, dated 2013).

How the values were obtained:
XIAP BIR-3 = molecular target: T1, XIAP BIR-3 (Homo sapiens, UniProt P98170); assay: Fluorescence polarization binding to XIAP BIR-3 with labeled peptide AbuRPF-K(5-Fam)-NH2; conditions: 40 nM BIR3, 5 nM labeled peptide, reported as ranges
T1 construct: 40 nM of the respective IAP BIR3
Method in brief: (§1)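 Competitive FP: compounds titrated against 5 nM AbuRPF-K(5-Fam)-NH2 tracer and 40 nM BIR3 protein, 15 min at RT in 0.1 M potassium phosphate pH 7.5 with bovine γ-globulin. Polarization read at 485/520 nm; KD reported in ranges A <0.1, B 0.1–1, C >1–10, D >10 μM.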

cIAP-1 BIR-3 = molecular target: T2, cIAP-1 BIR-3 (Homo sapiens, UniProt Q13490); assay: Fluorescence polarization binding to cIAP-1 BIR-3 with labeled peptide AbuRPF-K(5-Fam)-NH2; conditions: 40 nM BIR3, 5 nM labeled peptide, reported as ranges, read-out: KD (c-IAP-1 BIR3)
T2 construct: 40 nM of the respective IAP BIR3
Method in brief: as §1

[1] = test system: ovarian cancer cell line, SK-OV-3; assay: SK-OV-3 cell growth inhibition (MTT, 72 hrs); format: cell-based; conditions: Homo sapiens, concentration giving 50% cell survival, reported as ranges
Method in brief: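 After overnight seeding in McCoy's medium with 10% FBS, SK-OV-3 cells were exposed to compound at 0.003-10 μM for 72 hrs at 37° C. MTT was then added for 3 h, with DMSO solubilization and OD read at 535 nm. CC50 is the concentration giving 50% survival relative to untreated control, reported as ranges.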

T2 sequence (Q13490 253-363 limits assumed): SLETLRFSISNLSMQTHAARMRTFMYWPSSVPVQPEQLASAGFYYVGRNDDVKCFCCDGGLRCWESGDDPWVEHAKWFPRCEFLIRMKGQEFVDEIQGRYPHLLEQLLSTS
T1 sequence (P98170 241-356 limits assumed): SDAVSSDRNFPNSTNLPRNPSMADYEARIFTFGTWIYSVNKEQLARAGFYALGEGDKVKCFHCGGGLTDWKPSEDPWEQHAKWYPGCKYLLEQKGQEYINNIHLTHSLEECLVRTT

SMILES	Kd (XIAP BIR-3) [nM]	Kd (cIAP-1 BIR-3) [nM]	CC50 [1] [nM]
CN[C@@H](C)C(=O)N[C@H](C(=O)N1CC[C@@H]2[C@H]1[C@@H](OCc1ccc(F)cc1)CN2C(=O)CC(C)C)C(C)(C)C [Example 39, N-{1-[6-(4-Fluoro-benzyloxy)-4-(3-methyl-butyryl)-hexahydro-pyrrolo[3,2-b]pyrrole-1-carbonyl]-2,2-dimethyl-propyl}-2-methylamino-propionamide]	< 100	< 100	< 100
CN[C@@H](C)C(=O)N[C@H](C(=O)N1CC[C@@H]2[C@H]1[C@@H](OCc1ccc(F)cc1)CN2C(=O)NCc1ccccc1)C(C)(C)C [Example 30, 4-[3,3-Dimethyl-2-(2-methylamino-propionylamino)-butyryl]-3-(4-fluoro-benzyloxy)-hexahydro-pyrrolo[3,2-b]pyrrole-1-carboxylic acid benzylamide]	< 100	< 100	< 100
CN[C@@H](C)C(=O)N[C@H](C(=O)N1CC[C@@H]2[C@H]1[C@@H](Oc1ccc(F)c(F)c1)CN2C(C)=O)C(C)(C)C [Example 21, N-{1-[4-Acetyl-6-(3,4-difluoro-phenoxy)-hexahydro-pyrrolo[3,2-b]pyrrole-1-carbonyl]-2,2-dimethyl-propyl}-2-methylamino-propionamide]	100 to 1000	< 100	< 100
CN[C@@H](C)C(=O)N[C@H](C(=O)N1CC[C@@H]2[C@H]1[C@@H](OCc1ccc(F)cc1)CN2C(=O)N(C)C)C(C)(C)C [Example 41, (3S,3aS,6aR)-4-((S)-3,3-dimethyl-2((S)-2-(methylamino)propanamido)butanoyl)-3-(4-fluorobenzyloxy)-N,N-dimethylhexahydropyrrolo[3,2-b]pyrrole-1(2H)-carboxamide]	< 100	< 100	< 100
CN[C@@H](C)C(=O)N[C@H](C(=O)N1CC[C@@H]2[C@H]1[C@@H](OCc1ccc(F)cc1)CN2C1CCCC1)C(C)(C)C [Example 44, (S)—N—((S)-1-((3aR,6S,6aS)-4-cyclopentyl-6-(4-fluorobenzyloxy)hexahydropyrrolo[3,2-b]pyrrol-1(2H)-yl)-3,3-dimethyl-1-oxobutan-2-yl)-2-(methylamino) propanamide]	100 to 1000	< 100	< 100
CN[C@@H](C)C(=O)N[C@H](C(=O)N1CC[C@@H]2[C@H]1[C@@H](OC(=O)N(c1ccccc1)c1ccccc1)CN2C(=O)NC(C)C)C(C)(C)C [Example 48, Diphenyl-carbamic acid 4-[3,3-dimethyl-2-(2-methylamino-propionylamino)-butyryl]-1-isopropylcarbamoyl-octahydro-pyrrolo[3,2-b]pyrrol-3-yl ester]	100 to 1000	< 100	100 to 1000
CN[C@@H](C)C(=O)N[C@H](C(=O)N1CC[C@H]2NC[C@H](COc3ccc(F)c(F)c3)[C@H]21)C(C)(C)C [Example 64, N-{1-[6-(3,4-Difluoro-phenoxymethyl)-hexahydro-pyrrolo[3,2-b]pyrrole-1-carbonyl]-2,2-dimethyl-propyl}-2-methylamino propionamide]	< 100	< 100	< 100
CN[C@@H](C)C(=O)N[C@H](C(=O)N1CC[C@@H]2[C@H]1[C@@H](COc1ccc(F)c(F)c1)CN2C(=O)NC(C)C)C(C)(C)C [Example 67, 3-(3,4-Difluoro-phenoxymethyl)-4-[3.3-dimethyl-2-(2-methylaminopropionylamino)-butyryl]-hexahydro-pyrrolo[3,2-b]pyrrole-1-carboxylic acid isopropylamide]	< 100	< 100	< 100
CN[C@@H](C)C(=O)N[C@H](C(=O)N1CC[C@@H]2[C@H]1[C@@H](O)CN2C(=O)NC(C)C)C(C)(C)C [Example 61, 4-[3,3-Dimethyl-2-(2-methylamino-propionylamino)-butyryl]-3-hydroxy-hexahydro-pyrrolo[3,2-b]pyrrole-1-carboxylic acid isopropylamide]	> 10000	100 to 1000	1000 to 10000
CN[C@@H](C)C(=O)N[C@H](C(=O)N1CC[C@@H]2[C@H]1[C@@H](COc1ccc(F)c(F)c1)CN2C(C)=O)C(C)(C)C [Example 65, N-{1-[4-Acetyl-6-(3,4-difluoro-phenoxymethyl)-hexahydro-pyrrolo[3,2-b]pyrrole-1-carbonyl]-2,2-dimethyl-propyl}-2-methylamino propionamide]	< 100	< 100	< 100

Second part, led by results:

Kd (XIAP BIR-3) [nM]	Kd (cIAP-1 BIR-3) [nM]	SMILES	CC50 [1] [nM]
< 100	< 100	CN[C@@H](C)C(=O)N[C@H](C(=O)N1CC[C@H]2NC[C@H](Oc3cccc4ccccc34)[C@H]21)C1CCCCC1 [Example 8, N-{1-Cyclohexyl-2-[6-(naphthalen-1-yloxy)-hexahydro-pyrrolo[3,2-b]pyrrol-1-yl]-2-oxo-ethyl}-2-methylamino-propionamide]	100 to 1000
100 to 1000	< 100	CN[C@@H](C)C(=O)N[C@H](C(=O)N1CC[C@@H]2[C@H]1[C@@H](OC(=O)Nc1ccccc1)CN2C(=O)NC(C)C)C(C)(C)C [Example 47, Phenyl-carbamic acid 4-[3,3-dimethyl-2-(2-methylamino-propionylamino)-butyryl]-1-isopropylcarbamoyl-octahydro-pyrrolo[3,2-b]pyrrol-3-yl ester]	< 100
< 100	< 100	CN[C@@H](C)C(=O)N[C@H](C(=O)N1CC[C@@H]2[C@H]1[C@@H](Oc1ccc(F)c(F)c1)CN2S(C)(=O)=O)C1CCCCC1 [Example 13, N-{1-Cyclohexyl-2-[6-(3,4-difluoro-phenoxy)-4-methanesulfonyl-hexahydro-pyrrolo[3,2-b]pyrrol-1-yl]-2-oxo-ethyl}-2-methylamino-propionamide]	< 100
1000 to 10000	< 100	CN[C@@H](C)C(=O)N[C@H](C(=O)N1CC[C@@H]2[C@H]1[C@@H](Oc1ccccc1)CN2C(C)=O)C(C)C [Example 2, N-[1-(4-Acetyl-6-phenoxy-hexahydro-pyrrolo[3,2-b]pyrrole-1-carbonyl)-2-methyl-propyl]-2-methylamino-propionamide]	< 100
100 to 1000	< 100	CN[C@@H](C)C(=O)N[C@H](C(=O)N1CC[C@@H]2[C@H]1[C@@H](Oc1ccccc1)CN2C(=O)OC(C)(C)C)C(C)C [Example 1, 4-[3-Methyl-2-(2-methylamino-propionylamino)-butyryl]-3-phenoxy-hexahydro-pyrrolo[3,2-b]pyrrole-1-carboxylic acid tert-butyl ester]	< 100
100 to 1000	< 100	CN[C@@H](C)C(=O)N[C@H](C(=O)N1CC[C@@H]2[C@H]1[C@@H](OC(=O)N(C)c1ccccc1)CN2C(=O)NC(C)C)C(C)(C)C [Example 50, Methyl-phenyl-carbamic acid 4-[3,3-dimethyl-2-(2-methylamino-propionylamino)-butyryl]-1-isopropylcarbamoyl-octahydro-pyrrolo[3,2-b]pyrrol-3-yl ester]	100 to 1000
< 100	< 100	CN[C@@H](C)C(=O)N[C@H](C(=O)N1CC[C@@H]2[C@H]1[C@@H](OCc1ccc(F)cc1)CN2C(=O)NC(C)C)C(C)(C)C [Example 37, 4-[3,3-Dimethyl-2-(2-methylamino-propionylamino)-butyryl]-3-(4-fluoro-benzyloxy)-hexahydro-pyrrolo[3,2-b]pyrrole-1-carboxylic acid isopropylamide]	< 100
< 100	< 100	CN[C@@H](C)C(=O)N[C@H](C(=O)N1CC[C@@H]2[C@H]1[C@@H](Oc1ccc(F)cc1)CN2S(C)(=O)=O)[C@@H](C)OC [Example 11, N-{1-[6-(4-Fluoro-phenoxy)-4-methanesulfonyl-hexahydro-pyrrolo[3,2-b]pyrrole-1-carbonyl]-2-methoxy-propyl}-2-methylamino-propionamide]	< 100
1000 to 10000	< 100	CN[C@@H](C)C(=O)N[C@H](C(=O)N1CC[C@@H]2[C@H]1[C@@H](OC(=O)N1CCOCC1)CN2C(=O)NC(C)C)C(C)(C)C [Example 60, Morpholine-4-carboxylic acid 4-[3,3-dimethyl-2-(2-methylamino-propionylamino)-butyryl]-1-isopropylcarbamoyl-octahydro-pyrrolo[3,2-b]pyrrol-3-yl ester]	1000 to 10000
100 to 1000	< 100	CN[C@@H](C)C(=O)N[C@H](C(=O)N1CC[C@@H]2[C@H]1[C@@H](OC(=O)Nc1ccc3ccccc3c1)CN2C(=O)NC(C)C)C(C)(C)C [Example 51, Naphthalen-2-yl-carbamic acid 4-[3,3-dimethyl-2-(2-methylamino-propionylamino)-butyryl]-1-isopropylcarbamoyl-octahydro-pyrrolo[3,2-b]pyrrol-3-yl ester]	1000 to 10000
< 100	< 100	CN[C@@H](C)C(=O)N[C@H](C(=O)N1CC[C@@H]2[C@H]1[C@@H](Oc1ccc(F)c(F)c1)CN2S(=O)(=O)CC(C)C)C(C)(C)C [Example 20, N-{1-[6-(3,4-Difluoro-phenoxy)-4-(2-methyl-propane-1-sulfonyl)-hexahydro-pyrrolo[3,2-b]pyrrole-1-carbonyl]-2,2-dimethyl-propyl}-2-methylamino-propionamide]	< 100
